Experimental data: patent US9469556B2, “Ballast water treatment system” (University of Strathclyde, priority 2009, dated 2016)

Tested on: organisms in sea water
Assay: ATP luminescence assay of sea samples treated with biocide dyes
Type: cell-based
Conditions: for biocidal properties in sea water (total ATP levels): Millport sea samples, different concentrations
Experimental: Required quantities of each biocide dye were added to the tubes containing the sea sample by means of sterile pipettes in order to give the desired concentrations.
50 mL of each seawater sample was centrifuged at 4,000 rpm for 30 minutes at room temperature. The supernatant was discarded, and the pellets (which may not be visible) were resuspended in 1 mL of ATP Buffer Mix by brisk mixing with a sterile pastette. 0.1 mL of detergent solution was added to each sample. Sample tubes were then placed in a water bath at 90° C. for exactly 5 minutes to lyse seawater organisms. Alternatively the seawater organisms (from 50 mL water) are captured on a 0.22 μm filter membrane and treated with the ATP Buffer Mix, as above.
As a negative control, sterilised seawater (filtered through 0.22 μm filter and/or autoclaved) was used. Where coloured agents were added to the samples, these were also added to the negative control at the same concentration.
One aliquot (0.1 mL) of ATP Assay Mix solution was thawed and added to a sterile transparent 5 mL luminometer tube. This was swirled and allowed to stand at room temperature to allow hydrolysis of endogenous ATP and decrease background.
Immediately after 5 minutes of being at 90° C., 0.1 mL of resuspended seawater sample was added to the reaction tube, swirled briskly for 5 seconds, and immediately measured using a tube luminometer using a 4 second read time.

## O=C1OC2(c3ccccc31)c1cc(I)c(O)c(I)c1Oc1c2cc(I)c(O)c1I [erythrosine]
Overnight incubation, with and without light (60 w for 5 minutes) (FIG. 3.3)
  biocidal properties in sea water (total ATP levels): effective biocidal properties

## CN(C)c1ccc(C(=C2C=CC(=[N+](C)C)C=C2)c2ccc(N(C)C)cc2)cc1 [Gentian Violet]
With and without incubation (FIG. 3.2)
  biocidal properties in sea water (total ATP levels): effective biocidal properties
Dyes used separately (FIG. 4.1)
  viability of organisms in sea water (as measured by ATP presence): incomplete reduction in viability
